This note sets out measurements from ChEMBL document CHEMBL1201862, “PubChem BioAssay data set” (2004).

Activity calls are given as the source filed them.

Test [1] can be described thus: potency of ADAM10 substrate cleavage blockers – biochemical, QFRET, dose response (AID 743254).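 Also: ADAM10 enzyme with the DM2 quenched FRET peptide as substrate; EDANS fluorescence gain as the protease cuts the substrate; inhibitor potency against ADAM10 proteolytic activity.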
Test [2] relates to Streptococcus sp. 'group A'. Briefly: Streptococcus pyogenes SK(-)GAS viability under kanamycin – luminescence, BacTiterGlo, confirmation, counter-screen for streptokinase expression inhibitor project, dose response (AID 1900). In kind it is functional, organism-based.
The next test has as its target T1, Streptokinase A (Streptococcus pyogenes serotype M1, UniProt P10520).
T1 sequence (P10520 whole entry): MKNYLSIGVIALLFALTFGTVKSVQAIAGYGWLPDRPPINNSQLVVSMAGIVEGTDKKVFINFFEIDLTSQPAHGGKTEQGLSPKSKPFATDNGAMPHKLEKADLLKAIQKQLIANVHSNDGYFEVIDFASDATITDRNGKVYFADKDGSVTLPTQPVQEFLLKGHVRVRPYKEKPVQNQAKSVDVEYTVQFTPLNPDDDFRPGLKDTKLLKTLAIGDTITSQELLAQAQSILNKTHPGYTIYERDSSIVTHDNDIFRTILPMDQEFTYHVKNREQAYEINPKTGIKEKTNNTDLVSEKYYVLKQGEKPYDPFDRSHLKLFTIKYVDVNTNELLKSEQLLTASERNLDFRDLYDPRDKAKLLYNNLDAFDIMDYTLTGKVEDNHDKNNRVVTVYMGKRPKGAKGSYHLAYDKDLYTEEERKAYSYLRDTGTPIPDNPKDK
Briefly: viability-normalized secreted streptokinase activity reduction – plasminogen activation absorbance, OD405, dose response (AID 1914).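 Also: secreted streptokinase activity via plasminogen activation per viability signal from cell pellet.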 It is filed as functional, Streptococcus pyogenes M1 GAS.

Another test deals with Streptococcus. Briefly: GAS UMAA2166 growth inhibition – luminescence, BacTiterGlo, counter-screen for streptokinase expression inhibitor project, dose response (AID 1915).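 Also: potency for reduction of bacterial viability or growth.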 In kind it is functional, organism-based.
Test [3] concerns the target Disintegrin and metalloproteinase domain-containing protein 17 (Homo sapiens, UniProt P78536). Briefly: inhibition of ADAM17 substrate cleavage – biochemical, quenched FRET substrate, counter-screen for ADAM10 exosite inhibitor project, dose response (AID 743253).
Test [4] is described as follows: anti-trypanosomal activity in BESM host cells – imaging, CA-I/72 strain, bovine embryo skeletal muscle, dry powder, dose response (AID 651885). In kind it is functional, cell-based.
Test [5] in a line: T. cruzi growth inhibition in host cells, dose response, cell-based, plate reader, dry powder, set 2 (AID 652275). It is filed as functional.
A short description of test [6]: mouse embryonic fibroblast toxicity – cell-based, plate reader, dry powder, set 2, cytotoxicity control, dose response (AID 652280). In kind it is functional. The conditions noted are these: NIH3T3.
Test [7] can be described thus: toxicity toward immortalized ovarian surface epithelium – cell-based, plate reader, dry powder samples, cytotoxicity control for PAX8 inhibitor project, dose response (AID 743045). In kind it is functional.
A short description of test [8]: P. falciparum Dd2 growth inhibitors, dose response, SYBR Green, cherry-picked samples (AID 1159567). In kind it is functional, cell-based.
The nature of test [9]: blockade of melanocortin 4 receptor signaling – cell-based, plate reader, cherry pick, counter-screen for LGR2 antagonist project, dose response (AID 743444).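 Also: transfected HEK 293 cells stimulated with alpha-MSH peptide; potency of inhibitors of the alpha-MSH evoked signal.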 It is filed as functional.
A short description of test [10]: OVCAR8 cell viability loss – plate reader, dry powder samples, PAX8 project, dose response (AID 743197). In kind it is functional, cell-based. The conditions noted are these: OVCAR-8.
Test [11] is described as follows: IGROV1 cell killing – plate reader, dry powder samples, PAX8 inhibitor project, dose response (AID 743043). It is filed as functional, cell-based. The conditions noted are these: IGROV-1.
A short description of test [12]: blockers of bursicon-stimulated LGR2 cAMP reporter – cell-based, HEK293, CRE-luciferase reporter, cherry pick, set 2, dose response (AID 743343).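 Also: transfected cells were stimulated with diluted bursicon conditioned medium after compound addition.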 In kind it is functional.
Another test deals with Paired box protein Pax-8 (Homo sapiens, UniProt Q06710). Briefly: PAX8 transcriptional activity inhibition in RMG-I – RMG-I cells, luciferase, cherry-pick, dose response (AID 687027).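 Also: luciferase reporter driven by Pax8 target thyroperoxidase promoter measured by SteadyGlo luminescence.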 It is filed as functional, cell-based.
A short description of test [13]: OVCAR-3 cell viability loss – plate reader, dry powder samples, PAX8 inhibitor project, dose response (AID 743044). In kind it is functional, cell-based.
The nature of test [14]: toxicity toward HepG2 liver cells – cell-based, plate reader, cherry-pick, antagonist series, cytotoxicity control, dose response (AID 743416). In kind it is functional.
Test [15] is described as follows: A549 cell cytotoxicity, dose response, cytotoxicity control, plate reader, cherry-pick, antagonist series (AID 743412). It is filed as functional, cell-based.
Test [16] is described as follows: viability loss in HEK293 cells – cell-based, plate reader, cherry-picked samples, cytotoxicity control, dose response (AID 743446). In kind it is functional.
Another test deals with Ephrin type-A receptor 4 (Mus musculus, UniProt Q03137). Briefly: EphA4 ligand-binding antagonists – biochemical, colorimetric, mouse EphA4, primary screen (AID 689). In kind it is functional.
Test [17] addresses Metabotropic glutamate receptor 5 (Rattus norvegicus, UniProt P31424). Nature of the test: Identification of a glycine sulfonamide based non-MPEP site positive allosteric potentiator (PAM) of mGlu5 (calcium_assay). In kind it is functional.
The next test addresses fMet-Leu-Phe receptor (Homo sapiens, UniProt P21462). Briefly: formyl peptide receptor binders – dose response (AID 519). In kind it is functional.
Test [18] is described as follows: kidney cell line viability loss – HEK293T, luminescence plate reader, powder samples, set 4, cytotoxicity control, dose response (AID 651863). It is filed as functional, cell-based. The conditions noted are these: HEK293.
A short description of test [19]: liver cell line viability loss – HepG2, luminescence plate reader, powder samples, set 2, cytotoxicity control, dose response (AID 651860). In kind it is functional, cell-based.

Chain of fMet-Leu-Phe receptor (P21462 whole entry): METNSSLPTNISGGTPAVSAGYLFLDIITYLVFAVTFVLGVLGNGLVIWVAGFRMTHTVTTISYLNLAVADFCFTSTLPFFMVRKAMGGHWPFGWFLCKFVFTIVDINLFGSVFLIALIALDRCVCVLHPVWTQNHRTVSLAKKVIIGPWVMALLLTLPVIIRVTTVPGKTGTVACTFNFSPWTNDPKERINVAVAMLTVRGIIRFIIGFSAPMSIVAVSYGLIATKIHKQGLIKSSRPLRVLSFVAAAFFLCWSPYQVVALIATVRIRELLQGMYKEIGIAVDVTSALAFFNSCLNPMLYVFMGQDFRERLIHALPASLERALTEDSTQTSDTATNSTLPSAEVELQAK
Chain of Ephrin type-A receptor 4 (Q03137 whole entry): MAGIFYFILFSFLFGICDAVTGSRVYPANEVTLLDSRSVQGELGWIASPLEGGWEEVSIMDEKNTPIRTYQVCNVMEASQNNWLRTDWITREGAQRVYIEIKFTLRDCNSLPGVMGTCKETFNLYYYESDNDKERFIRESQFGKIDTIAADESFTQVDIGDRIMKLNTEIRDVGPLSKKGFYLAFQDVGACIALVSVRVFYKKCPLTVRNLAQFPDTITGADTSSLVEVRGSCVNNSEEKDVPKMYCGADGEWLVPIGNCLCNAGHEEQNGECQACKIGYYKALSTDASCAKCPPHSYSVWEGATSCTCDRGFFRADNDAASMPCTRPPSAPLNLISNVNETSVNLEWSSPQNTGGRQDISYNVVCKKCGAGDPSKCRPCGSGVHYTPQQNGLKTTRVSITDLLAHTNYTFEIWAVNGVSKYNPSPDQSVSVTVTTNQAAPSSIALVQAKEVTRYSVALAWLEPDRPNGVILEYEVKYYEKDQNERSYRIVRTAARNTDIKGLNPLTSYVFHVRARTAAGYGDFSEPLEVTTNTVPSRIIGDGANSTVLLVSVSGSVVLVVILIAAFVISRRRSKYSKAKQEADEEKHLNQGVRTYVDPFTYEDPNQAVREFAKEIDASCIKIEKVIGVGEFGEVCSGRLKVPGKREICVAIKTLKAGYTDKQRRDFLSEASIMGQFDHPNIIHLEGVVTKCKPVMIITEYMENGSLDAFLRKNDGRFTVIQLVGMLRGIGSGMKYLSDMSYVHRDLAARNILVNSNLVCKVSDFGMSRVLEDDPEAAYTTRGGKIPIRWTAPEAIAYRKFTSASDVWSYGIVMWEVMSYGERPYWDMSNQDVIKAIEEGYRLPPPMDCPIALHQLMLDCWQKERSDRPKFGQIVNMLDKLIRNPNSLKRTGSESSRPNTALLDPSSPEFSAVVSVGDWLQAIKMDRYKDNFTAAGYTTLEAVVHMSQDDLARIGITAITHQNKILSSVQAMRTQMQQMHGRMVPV
Chain of Paired box protein Pax-8 (Q06710 whole entry): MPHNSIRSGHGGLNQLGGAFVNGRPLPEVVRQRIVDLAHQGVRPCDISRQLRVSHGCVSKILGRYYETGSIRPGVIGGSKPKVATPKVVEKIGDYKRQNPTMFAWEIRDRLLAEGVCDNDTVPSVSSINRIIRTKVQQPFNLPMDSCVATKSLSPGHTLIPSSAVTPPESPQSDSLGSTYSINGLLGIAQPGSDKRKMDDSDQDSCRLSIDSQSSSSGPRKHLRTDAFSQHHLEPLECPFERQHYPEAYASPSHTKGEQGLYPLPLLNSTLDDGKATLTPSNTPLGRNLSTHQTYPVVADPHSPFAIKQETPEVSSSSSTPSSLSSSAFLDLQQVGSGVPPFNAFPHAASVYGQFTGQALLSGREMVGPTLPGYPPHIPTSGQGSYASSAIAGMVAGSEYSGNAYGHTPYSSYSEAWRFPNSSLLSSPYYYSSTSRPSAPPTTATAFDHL
Chain of Disintegrin and metalloproteinase domain-containing protein 17 (P78536 whole entry, the tested form may be a part): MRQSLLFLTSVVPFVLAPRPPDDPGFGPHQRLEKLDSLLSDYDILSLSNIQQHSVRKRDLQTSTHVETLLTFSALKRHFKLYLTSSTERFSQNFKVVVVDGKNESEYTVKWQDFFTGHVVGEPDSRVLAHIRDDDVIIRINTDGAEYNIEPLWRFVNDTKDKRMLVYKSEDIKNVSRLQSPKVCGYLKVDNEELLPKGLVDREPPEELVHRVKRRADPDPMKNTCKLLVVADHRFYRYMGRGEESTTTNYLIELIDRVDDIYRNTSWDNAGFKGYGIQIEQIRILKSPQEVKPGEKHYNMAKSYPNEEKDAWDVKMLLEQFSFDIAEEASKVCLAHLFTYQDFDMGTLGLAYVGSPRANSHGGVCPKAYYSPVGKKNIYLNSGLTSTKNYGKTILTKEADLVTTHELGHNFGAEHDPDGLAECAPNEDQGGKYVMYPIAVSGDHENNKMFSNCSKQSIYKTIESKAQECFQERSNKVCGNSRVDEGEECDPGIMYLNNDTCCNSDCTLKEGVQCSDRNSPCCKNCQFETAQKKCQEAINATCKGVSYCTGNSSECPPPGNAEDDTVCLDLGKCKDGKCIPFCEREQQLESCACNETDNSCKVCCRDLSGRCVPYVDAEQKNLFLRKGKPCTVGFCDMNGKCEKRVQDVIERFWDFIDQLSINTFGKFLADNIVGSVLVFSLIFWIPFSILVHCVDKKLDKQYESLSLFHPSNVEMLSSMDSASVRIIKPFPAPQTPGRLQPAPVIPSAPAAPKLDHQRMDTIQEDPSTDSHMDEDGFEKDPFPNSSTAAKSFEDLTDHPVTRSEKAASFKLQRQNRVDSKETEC
Chain of Metabotropic glutamate receptor 5 (P31424 whole entry): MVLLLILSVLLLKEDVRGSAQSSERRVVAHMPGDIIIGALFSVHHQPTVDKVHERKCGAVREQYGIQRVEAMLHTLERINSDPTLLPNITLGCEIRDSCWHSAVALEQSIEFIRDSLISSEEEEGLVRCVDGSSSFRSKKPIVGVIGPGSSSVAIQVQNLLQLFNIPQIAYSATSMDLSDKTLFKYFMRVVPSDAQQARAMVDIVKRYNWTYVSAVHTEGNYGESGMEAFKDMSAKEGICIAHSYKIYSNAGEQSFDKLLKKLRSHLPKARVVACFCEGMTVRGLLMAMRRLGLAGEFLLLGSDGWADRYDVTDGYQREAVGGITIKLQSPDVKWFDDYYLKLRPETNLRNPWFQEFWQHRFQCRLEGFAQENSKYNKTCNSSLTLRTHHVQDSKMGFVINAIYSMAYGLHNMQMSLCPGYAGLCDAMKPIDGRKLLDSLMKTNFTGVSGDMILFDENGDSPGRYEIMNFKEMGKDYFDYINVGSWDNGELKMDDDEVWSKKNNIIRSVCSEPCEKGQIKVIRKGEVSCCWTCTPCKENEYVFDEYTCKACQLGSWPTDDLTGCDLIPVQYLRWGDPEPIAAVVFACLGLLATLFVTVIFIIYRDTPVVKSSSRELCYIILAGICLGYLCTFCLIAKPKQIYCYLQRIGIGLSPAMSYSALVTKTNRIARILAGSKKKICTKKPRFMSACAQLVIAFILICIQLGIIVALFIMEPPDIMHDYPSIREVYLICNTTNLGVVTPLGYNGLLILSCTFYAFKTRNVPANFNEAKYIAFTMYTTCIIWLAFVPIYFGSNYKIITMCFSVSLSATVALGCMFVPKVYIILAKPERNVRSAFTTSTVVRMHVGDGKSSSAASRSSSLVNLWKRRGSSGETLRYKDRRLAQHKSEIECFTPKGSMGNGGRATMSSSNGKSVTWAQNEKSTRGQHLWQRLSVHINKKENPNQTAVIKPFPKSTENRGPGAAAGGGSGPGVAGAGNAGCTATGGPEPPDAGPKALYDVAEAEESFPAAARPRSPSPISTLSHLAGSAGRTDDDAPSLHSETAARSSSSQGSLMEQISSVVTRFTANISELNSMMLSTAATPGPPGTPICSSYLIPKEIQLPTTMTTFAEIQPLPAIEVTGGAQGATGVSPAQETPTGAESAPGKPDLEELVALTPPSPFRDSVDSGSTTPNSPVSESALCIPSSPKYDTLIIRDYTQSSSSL

Consider `O=C(OCc1ccc(-c2ccccc2)cc1)c1cccc(O)c1`, for which the IC50 is > 7.72 µM (active) in [1] and > 69.5 µM (inactive) in test [3]. Also, the EC50 was 11.4 µM (active) in test [2], 22.4 µM (active) on Streptokinase A and 19 µM (active) in the test on Streptococcus.
With `C[C@H]1CN([C@@H](C)CO)C(=O)c2cccc(NC(=O)c3ccncc3)c2O[C@@H]1CN(C)Cc1ccc(Cl)c(Cl)c1`, in test [4], the IC50 is 0.00211 µM (active). Besides, the concentration at half-maximal activity (AC50) was 0.00674 µM (active) in [5] and 13.2 µM (active) in [6].
In the case of `Cn1cnc(S(=O)(=O)N2C[C@@H]3N[C@H](C2)[C@@H]3c2ccc(-c3ccccc3F)cc2)c1`, the AC50 was 25.9 µM (active) in test [7]; 3.72 µM (active) in test [8]; 6.25 µM (active) in test [9]; 24.5 µM (active) in test [10]; 27.1 µM (active) in test [11]; 18.9 µM (active) in test [12]. Also, the half-maximal activity concentration (AC50) at Paired box protein Pax-8 was 4.26 µM (active); in test [13], 22 µM (active); in [14], 28.2 µM (active); in test [15], 11 µM (active); in [16], > 52 µM (inactive).
As for `CS(=O)(=O)N(CC(=O)Nc1cccc(Cl)c1)c1ccccc1Cl`, at Ephrin type-A receptor 4, the IC50 was > 100 µM (not active). Also, the EC50 in test [17] was found to be 0.051 µM.
For `COc1ccc(-c2cn3cccnc3n2)cc1NC(=O)C1CCCC1`, the Ki on fMet-Leu-Phe receptor was > 66.7 µM (inactive).
On to `Cc1ccc(S(=O)(=O)NC2=C/C(=N\[C@@H](C)C(=O)OC(C)(C)C)C(=O)c3ccccc32)c(C)c1`, for which the AC50 in [18] is 16.3 µM (active); in [19], 43 µM (active).
